Data published in patent publication US20230253066A1, “DESIGNED PROTEINS FOR LIGAND BINDING” (The Regents of the University of California, priority 2020, published 2023).

Molecular target: ABLE
Assay: Fluorescence anisotropy ligand competition on ABLE (displacement of apixaban-peg-FITC)
Format: binding
Procedure: We performed fluorescence anisotropy experiments (54, 55) of ABLE and LABLE using a FITC fluorophore conjugated to apixaban as the fluorescent probe (FIGS. 512A-512D and Scheme 1). We serially diluted a concentrated protein solution containing 25 nM Apx-peg-FITC, holding constant the concentration of Apx-peg-FITC. Parallel and perpendicularly polarized emission at 528 nm (10 nm slit width, 510 nm long pass filter) were integrated for 10 seconds after 485 nm (5 nm slit width) excitation of the FITC fluorophore of Apx-peg-FITC. The data were fit to a single-site binding model (Equation 2, with N=1) (FIG. S12B). We performed ligand competition experiments (54, 55) by adding aliquots of a concentrated ligand stock in DMSO into an approximately 50% bound complex of protein and Apx-peg-FITC (25 nM). The decrease in anisotropy as a function of competing ligand was fit to a competitive binding model (54, 55) (FIG. 4D and FIG. S12C and FIG. S12D). Because effects of DMSO on the anisotropy of bound ABLE/Apx-peg-FITC complex become more pronounced at high concentrations of DMSO (>4%), we fit only the initial data points at low DMSO concentration (% DMSO <2%, FIG. 4D). […] DMSO may have a minor effect on competitive binding with weaker competitors (i.e., apixabanCOO^− and rivaroxaban), where high concentrations of competitor are needed to decrease anisotropy. As such, the reported dissociation constants of these weaker competitors can be viewed as a lower limit to the KD. Fluorescence polarization competition with apixaban as competitor gives a KD of 7 (±1) μM for the apixaban/ABLE complex (FIG. 4D), which agrees with that of the more precise spectral titration [KD=5 (±1) μM]. Binding experiments were performed at least twice to confirm reproducibility, and the reported errors correspond to the uncertainty in the fit parameters.

| Kd (ABLE 20 μM, apixaban-peg-FITC 25 nM, 50 mM NaPi, 100 mM NaCl, pH 7.4, fit of initial points at DMSO <2%, KD of weaker competitors viewed as lower limit, read-out: KD of competing ligand for ABLE, competitive binding model) | fold tighter binding to ABLE than rivaroxaban (fluorescence polarization competition, FIG. 4D) | binding to ABLE (in words) (competition with apixaban-peg-FITC) | SMILES |
| --- | --- | --- | --- |
| 7 µM | 20 fold |  | COc1ccc(-n2nc(C(N)=O)c3c2C(=O)N(c2ccc(N4CCCCC4=O)cc2)CC3)cc1 [apixaban] |
|  |  | only very weak binding | O=C(NC[C@H]1CN(c2ccc(N3CCOCC3=O)cc2)C(=O)O1)c1ccc(Cl)s1 [rivaroxaban] |
